Columns and labels:
[1] = molecular target: recombinant PKC-γ (Homo sapiens, UniProt P05129); assay: Activation of protein kinase PKC-γ (enzyme test); assay type: biochemical; conditions: control with 100 nM TPA set to 100%
Experimental: PKCγ activators are potentially suitable for activating cc-secretase. These activators are found in enzyme tests in which the recombinantly produced PKC-γ is suboptimally active. The test media were:
In the table, the control with 100 nM phorbol-12-myristate-13-acetate (TPA; stimulator of PKC-γ) was set to 100%.

[2] = Stability of hyperforin salts on storage at room temperature (content by HPLC); assay type: physicochemical; conditions: for Change in the hyperforin content, difference after 1 week / Change in the hyperforin content, difference after 4 weeks / Change in the hyperforin content, difference after 12 weeks: room temperature, brown-glass bottles, without protective gas; for Change in the hyperforin content, difference after 1 week / Change in the hyperforin content, difference after 4 weeks / Change in the hyperforin content, difference after 12 weeks / Initial value, hyperforin content (% of the stoichiometric content): HPLC; for Initial value, hyperforin content (% of the stoichiometric content): hyperforin (examples 1 to 20) or hyperforin+adhyperforin (examples 21 to 31)
Experimental: General: Melting points were measured with Elektrothermal® or B-545 (Büchi) apparatus; IR spectra were recorded with an IFS 28 (Bruker) IR-spectrometer on KBr blanks, NMR spectra with an AC 200 or Avance 200 (Bruker) in D4-methanol (200 MHz for ^1H and 50 MHz for ^13C; δ-values in ppm). HPLC determinations were performed using a Dynamax PDA-1 from Rainin, Voburn, Mass., USA. HPLC conditions (isocratic): adsorbant: Eurospher 100-C18, 10 μm. Eluant: Acetonitrile/water/phosphoric acid=85/15/0.3 (vol./vol.). Detection: 273 nm. […] Assay: Content stated in area-% with reference to the reference standard. […] Operating conditions: under red light or in darkened apparatus under protective gas (nitrogen or argon). […] They are calculated as hydrates. Abbreviations: MTBE=Methyl tert.-butyl ether. “98H/I”=n-heptane/isopropanol 98/2 (vol/vol). Mp.=melting point. anh.=anhydrous. Th=theoretical. sv=very strong.
1 This salt is used as the reference standard.

[3] = tested on: α-secretase; assay: Activation of α-secretase in secα1-transfected cells (Seap release); assay type: cell-based, human; conditions: 60 min incubation, mean of triplicates
Excerpt: As the APP cassette in both constructs begins with amino-acid 7 of the β-amyloid sequence, the recognition sequence for β-secretase in the sec-fusion proteins is absent. Cleavage by γ-secretase has not been described for human APLP-2, with the result that the specificity of the fusion proteins for α-secretase only is achieved by substitution of the trans-membrane domain of APLP-2 for APP. The expression plasmid secα1 was stably transfected into human neuronal cells SY5Y. Activation of α-secretase in these secα1-transfected cells is manifested in an increased release of Seap into the cell medium. The quantity of Seap is determined, and serves as a measure of the α-secretase activity.
Test conditions: 80 000 FL-2a cells/well. V=100 μl. Incubation time: 60 min.
Concentration of the substances: 10 μg/ml.
Mean values±s.d. of triplicates.
The activation of α-secretase by the phorbol ester TPA (100 ng/ml) was measured as the positive control.

Row | SMILES | Increase in the activity of PKC-γ ([1]; substance dose 1 μg/ml) | Increase in the activity of PKC-γ ([1]; substance dose 3 μg/ml) | Increase in the activity of PKC-γ ([1]; substance dose 10 μg/ml) | Change in the hyperforin content, difference after 1 week [2] | Change in the hyperforin content, difference after 4 weeks [2] | Change in the hyperforin content, difference after 12 weeks [2] | Initial value, hyperforin content (% of the stoichiometric content) ([2]; storage time 0) | other results
1 | CC(C)=CCC[C@]1(C)[C@@H](CC=C(C)C)C[C@@]2(CC=C(C)C)C(=O)[C@]1(C(=O)C(C)C)C(=O)C(CC=C(C)C)=C2O.[Na] [Example 1, Hyperforin Sodium Salt] | 9% | 30% | 56% |  |  |  |  | 
2 | C1CCC(NC2CCCCC2)CC1.CC(C)=CCC[C@]1(C)C(CC=C(C)C)C[C@@]2(CC=C(C)C)C(=O)[C@]1(C(=O)C(C)C)C(=O)C(CC=C(C)C)=C2O (some centres unmarked) [Example 2, N,N-Dicyclohexylamine Salt of Hyperforin] |  |  |  |  |  |  |  | Initial value, hyperforin content (titr.) ([2]; storage time 0, perchloric-acid titration): 100%
3 | CC(C)=CCC[C@]1(C)C(CC=C(C)C)C[C@@]2(CC=C(C)C)C(=O)[C@]1(C(=O)C(C)C)C(=O)C(CC=C(C)C)=C2O.COc1cc(CN)cc(OC)c1OC (some centres unmarked) [Example 3, 3,4,5-Trimethoxybenzylamine Salt of Hyperforin] |  |  |  | +1.1% | −1.1% | −5.0% | 87.2% | 
4 | C1CCNC1.CC(C)=CCC[C@]1(C)C(CC=C(C)C)C[C@@]2(CC=C(C)C)C(=O)[C@]1(C(=O)C(C)C)C(=O)C(CC=C(C)C)=C2O (some centres unmarked) [Example 5, Pyrrolidine Salt of Hyperforin] | 3% | 20% | 48% | −0.5% |  | −3.2% | 93.7% | 
5 | CC(C)=CCCC1(C)C(CC=C(C)C)CC2(CC=C(C)C)C(=O)C1(C(=O)C(C)C)C(=O)C(CC=C(C)C)=C2O.NCCCNC1CCCCC1 (centres unmarked) [Example 15] |  |  |  | −2.0% | −2.0% | −9.9% | 90.8% | 
6 | CC(C)=CCC[C@]1(C)C(CC=C(C)C)C[C@@]2(CC=C(C)C)C(=O)[C@]1(C(=O)C(C)C)C(=O)C(CC=C(C)C)=C2O.Nc1ccncc1 (some centres unmarked) [Example 16] |  |  |  | +1.4% | +0.1% |  | 94.6% | 
7 | CC(C)=CCC[C@]1(C)[C@@H](CC=C(C)C)C[C@@]2(CC=C(C)C)C(=O)[C@]1(C(=O)C(C)C)C(=O)C(CC=C(C)C)=C2O [Hyperforin, hyperforin, reference compound] | 6% | 51% | 45% |  |  |  |  | Activity of α-secretase (secreted alkaline phosphatase, Seap) ([3]; 10 μg/ml, 80 000 cells/well): 441 RLU
8 | CCCCCCCCCCCCCC(=O)O[C@@H]1[C@@H](C)[C@@]2(O)[C@@H](C=C(CO)C[C@]3(O)C(=O)C(C)=C[C@@H]23)[C@@H]2C(C)(C)[C@]12OC(C)=O [TPA, phorbol-12-myristate-13-acetate] |  |  |  |  |  |  |  | Activity of α-secretase (secreted alkaline phosphatase, Seap) ([3]; positive control, 100 ng/ml): 386 RLU
